Data reported in patent publication US20230365533A1, “BICYCLOHEPTANE PYRROLIDINE OREXIN RECEPTOR AGONISTS” (MERCK SHARP & DOHME CORP., priority 2021, published 2023).

What follows are molecules tested against T1, human OX2R (Homo sapiens, UniProt O43614) (assay: IPOne (IP-1) orexin receptor agonist assay in CHO cells expressing human OX2R). Conditions: IPOne assay, CHO cells expressing human OX2R, 2 hours incubation; read-out: hoX2R_IP IC50.
T1 construct: expressed in transfected cells; host or cells: CHO (Chinese hamster ovary) cells, grown under G418 selection
T1 sequence (O43614 1-444): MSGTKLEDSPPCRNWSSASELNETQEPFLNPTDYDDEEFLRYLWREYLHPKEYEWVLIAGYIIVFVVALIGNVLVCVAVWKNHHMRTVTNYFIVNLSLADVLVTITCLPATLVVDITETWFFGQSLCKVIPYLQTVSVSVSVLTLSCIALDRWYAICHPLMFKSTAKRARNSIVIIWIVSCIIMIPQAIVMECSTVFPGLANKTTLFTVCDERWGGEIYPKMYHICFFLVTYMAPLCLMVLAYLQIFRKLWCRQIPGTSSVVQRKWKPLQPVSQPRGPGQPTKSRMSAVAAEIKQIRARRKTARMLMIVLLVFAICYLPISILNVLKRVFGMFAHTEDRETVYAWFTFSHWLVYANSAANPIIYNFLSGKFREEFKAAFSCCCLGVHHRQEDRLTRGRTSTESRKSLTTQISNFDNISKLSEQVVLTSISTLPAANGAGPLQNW
Assay type: cell-based
In short: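 CHO cells with human OX2R treated 2 h at 37 °C with 10-point ½-log compound dilutions in stimulation buffer; IP-1 accumulation read by HTRF (665/620 nm) after 60 min detection. EC50 from four-parameter fit; % effect versus a 1 uM reference agonist.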

Structure (SMILES)	IC50
COC(=O)N1[C@H](C(F)F)C[C@H](NS(=O)(=O)C(C)C)[C@@H]1COC1CCC2(c3ncc(F)cn3)CC2C1 (stereo partly drawn) [Example 120, methyl (2R,3S,5S)-5-(difluoromethyl)-2-(((6-(5-fluoropyrimidin-2-yl)bicyclo[4.1.0]heptan-3-yl)oxy)methyl)-3-((1-methylethyl)sulfonamido)pyrrolidine-1-carboxylate]	2.4 nM
CC(C)OC(=O)N1[C@H](C)C[C@H](NS(=O)(=O)N(C)C)[C@@H]1CO[C@@H]1CC[C@]2(c3ncccn3)C[C@@H]2C1 (single isomer, unassigned) [Example 170]	5.2 nM
COC(=O)N1[C@H](C)C[C@H](NS(=O)(=O)C(C)C)[C@@H]1CO[C@@H]1CC[C@]2(c3ncc(F)cn3)C[C@@H]2C1 [Example 46, methyl (2R,3S,5R)-2-((((1R,3R,6S)-6-(5-fluoropyrimidin-2-yl)bicyclo[4.1.0]heptan-3-yl)oxy)methyl)-5-methyl-3-((1-methylethyl)sulfonamido)pyrrolidine-1-carboxylate]	13.4 nM
COC(=O)N1[C@H](C)C[C@H](NS(=O)(=O)N2CCC2)[C@@H]1CO[C@@H]1CC[C@]2(c3ncc(F)cn3)C[C@@H]2C1 [Example 43, methyl (2R,3S,5R)-3-(azetidine-1-sulfonamido)-2-((((1R,3R,6S)-6-(5-fluoropyrimidin-2-yl)bicyclo[4.1.0]heptan-3-yl)oxy)methyl)-5-methylpyrrolidine-1-carboxylate]	49.3 nM
COC(=O)N1[C@H](C)C[C@H](NS(C)(=O)=O)[C@@H]1CO[C@H]1CC[C@@]2(c3ncc(F)cn3)C[C@H]2C1 (single isomer, unassigned) [Example 137]	1.4 nM
COC(=O)N1[C@H](C)C[C@H](NS(=O)(=O)N(C)C)[C@@H]1COC1CCC2(c3cnccn3)CC2C1 (single isomer, unassigned) [Example 14]	161 nM
CCC(F)(F)COC(=O)N1[C@H](C)C[C@H](NS(C)(=O)=O)[C@@H]1CO[C@H]1CC[C@@]2(c3ncc(F)cn3)C[C@H]2C1 [Example 60, 2,2-difluorobutyl (2R,3S,5R)-2-((((1S,3S,6R)-6-(5-fluoropyrimidin-2-yl)bicyclo[4.1.0]heptan-3-yl)oxy)methyl)-5-methyl-3-(methylsulfonamido)pyrrolidine-1-carboxylate]	1.4 nM
COC(=O)N1[C@H](C)C[C@H](NS(=O)(=O)N(C)C)[C@@H]1COC1CCC2(c3cc(F)cc(F)c3)CC2C1 (stereo partly drawn) [Example 4, methyl (2R,3S,5R)-2-(((6-(3,5-difluorophenyl)bicyclo[4.1.0]heptan-3-yl)oxy)methyl)-3-((N,N-dimethylsulfamoyl)amino)-5-methylpyrrolidine-1-carboxylate]	604 nM
COC(=O)N1[C@H](C)C[C@H](NS(=O)(=O)C(F)(F)F)[C@@H]1CO[C@H]1CC[C@@]2(c3ncc(F)cn3)C[C@H]2C1 [Example 31, methyl (2R,3S,5R)-2-((((1S,3S,6R)-6-(5-fluoropyrimidin-2-yl)bicyclo[4.1.0]heptan-3-yl)oxy)methyl)-5-methyl-3-((trifluoromethyl)sulfonamido)pyrrolidine-1-carboxylate]	3 nM
COC(=O)N1[C@H](C)C[C@H](NS(=O)(=O)C(F)F)[C@@H]1CO[C@H]1CC[C@@]2(c3ncc(Cl)cn3)C[C@H]2C1 (single isomer, unassigned) [Example 78]	1.2 nM

Continued by falling IC50, values first:

IC50	Structure (SMILES)
736 nM	COC(=O)N1[C@H](C)C[C@H](NS(C)(=O)=O)[C@@H]1COC1CCC2(c3ncc(F)c(C)n3)CC2C1 (stereo partly drawn) [Example 77, methyl (2R,3S,5R)-2-(((6-(5-fluoro-4-methylpyrimidin-2-yl)bicyclo[4.1.0]heptan-3-yl)oxy)methyl)-5-methyl-3-(methylsulfonamido)pyrrolidine-1-carboxylate]
461 nM	COC(=O)N1[C@H](C)C[C@H](NS(=O)(=O)N(C)C)[C@@H]1COC1CCC2(c3cnccn3)CC2C1 (stereo partly drawn) [Example 13, methyl (2R,3S,5R)-3-((N,N-dimethylsulfamoyl)amino)-5-methyl-2-(((6-(pyrazin-2-yl)bicyclo[4.1.0]heptan-3-yl)oxy)methyl)pyrrolidine-1-carboxylate]
257 nM	COC(=O)N1[C@H](C)C[C@H](NS(C)(=O)=O)[C@@H]1COC1CCC2(c3ncc(OC(F)F)c(C)n3)CC2C1 (stereo partly drawn) [Example 75, methyl (2R,3S,5R)-2-(((6-(5-(difluoromethoxy)-4-methylpyrimidin-2-yl)bicyclo[4.1.0]heptan-3-yl)oxy)methyl)-5-methyl-3-(methylsulfonamido)pyrrolidine-1-carboxylate]
51.2 nM	COC(=O)N1[C@H](C)C[C@H](NS(C)(=O)=O)[C@@H]1COC1CCC2(c3ncc(F)c(OC)n3)CC2C1 (stereo partly drawn) [Example 76, methyl (2R,3S,5R)-2-(((6-(5-fluoro-4-methoxypyrimidin-2-yl)bicyclo[4.1.0]heptan-3-yl)oxy)methyl)-5-methyl-3-(methylsulfonamido)pyrrolidine-1-carboxylate]
34.4 nM	COC(=O)N1[C@H](C)C[C@H](NS(=O)(=O)Cc2ccccc2)[C@@H]1CO[C@H]1CC[C@@]2(c3ncc(F)cn3)C[C@H]2C1 [Example 34, methyl (2R,3S,5R)-2-((((1S,3S,6R)-6-(5-fluoropyrimidin-2-yl)bicyclo[4.1.0]heptan-3-yl)oxy)methyl)-5-methyl-3-((phenylmethyl)sulfonamido)pyrrolidine-1-carboxylate]
9.9 nM	COC(=O)N1[C@H](C)C[C@H](NS(=O)(=O)CF)[C@@H]1COC1CCC2(c3ncc(Cl)c(OC)n3)CC2C1 (stereo partly drawn) [Example 86, methyl (2R,3S,5R)-2-(((6-(5-chloro-4-methoxypyrimidin-2-yl)bicyclo[4.1.0]heptan-3-yl)oxy)methyl)-3-((fluoromethyl)sulfonamido)-5-methylpyrrolidine-1-carboxylate]
7.4 nM	CC(C)OC(=O)N1[C@H](C)C[C@H](NS(=O)(=O)CF)[C@@H]1COC1CCC2(c3ncc(Br)cn3)CC2C1 (stereo partly drawn) [Example 108, isopropyl (2R,3S,5R)-2-(((6-(5-bromopyrimidin-2-yl)bicyclo[4.1.0]heptan-3-yl)oxy)methyl)-3-((fluoromethyl)sulfonamido)-5-methylpyrrolidine-1-carboxylate]
6.3 nM	COC(=O)N1[C@H](C)C[C@H](NS(C)(=O)=O)[C@@H]1COC1CCC2(c3ncc(F)cn3)CC2C1 (stereo partly drawn) [Example 135, methyl (2R,3S,5R)-2-(((6-(5-fluoropyrimidin-2-yl)bicyclo[4.1.0]heptan-3-yl)oxy)methyl)-5-methyl-3-(methylsulfonamido)pyrrolidine-1-carboxylate]
2.3 nM	CC(C)OC(=O)N1[C@H](C)C[C@H](NS(=O)(=O)N(C)C)[C@@H]1CO[C@H]1CC[C@@]2(c3ncccn3)C[C@H]2C1 (single isomer, unassigned) [Example 171]
1.4 nM	COC(=O)N1[C@H](C)C[C@H](NS(=O)(=O)C(F)F)[C@@H]1CO[C@H]1CC[C@@]2(c3ncc(F)cn3)C[C@H]2C1 [Example 48, methyl (2R,3S,5R)-3-((difluoromethyl)sulfonamido)-2-((((1S,3S,6R)-6-(5-fluoropyrimidin-2-yl)bicyclo[4.1.0]heptan-3-yl)oxy)methyl)-5-methylpyrrolidine-1-carboxylate]
1.4 nM	C[C@@H]1C[C@H](NS(C)(=O)=O)[C@H](CO[C@H]2CC[C@@]3(c4ncc(F)cn4)C[C@H]3C2)N1C(=O)OCC1(C)CC1(F)F (stereo partly drawn) [Example 57, (2,2-difluoro-1-methylcyclopropyl)methyl (2R,3S,5R)-2-((((1S,3S,6R)-6-(5-fluoropyrimidin-2-yl)bicyclo[4.1.0]heptan-3-yl)oxy)methyl)-5-methyl-3-(methylsulfonamido)pyrrolidine-1-carboxylate]
1.4 nM	CC(C)OC(=O)N1[C@H](C(F)F)C[C@H](NS(C)(=O)=O)[C@@H]1CO[C@H]1CC[C@@]2(c3ncc(F)cn3)C[C@H]2C1 [Example 119, isopropyl (2R,3S,5S)-5-(difluoromethyl)-2-((((1S,3S,6R)-6-(5-fluoropyrimidin-2-yl)bicyclo[4.1.0]heptan-3-yl)oxy)methyl)-3-(methylsulfonamido)pyrrolidine-1-carboxylate]
1.4 nM	COC(=O)N1[C@@H]2CCC[C@@H]2[C@H](NS(=O)(=O)CF)[C@@H]1COC1CCC2(c3ncc(F)cn3)CC2C1 (stereo partly drawn) [Example 130, methyl (2R,3S,3aS,6aR)-3-((fluoromethyl)sulfonamido)-2-(((6-(5-fluoropyrimidin-2-yl)bicyclo[4.1.0]heptan-3-yl)oxy)methyl)hexahydrocyclopenta[b]pyrrole-1(2H)-carboxylate]
1 nM	C[C@@H]1C[C@H](NS(C)(=O)=O)[C@H](CO[C@H]2CC[C@@]3(c4ncc(F)cn4)C[C@H]3C2)N1C(=O)OC[C@H]1[C@H](C)C1(F)F [Example 55, ((1R,3S)-2,2-difluoro-3-methylcyclopropyl)methyl (2R,3S,5R)-2-((((1S,3S,6R)-6-(5-fluoropyrimidin-2-yl)bicyclo[4.1.0]heptan-3-yl)oxy)methyl)-5-methyl-3-(methylsulfonamido)pyrrolidine-1-carboxylate]
0.6 nM	C[C@@H]1C[C@H](NS(C)(=O)=O)[C@H](CO[C@H]2CC[C@@]3(c4ncc(F)cn4)C[C@H]3C2)N1C(=O)OCC(F)F [Example 66, 2,2-difluoroethyl (2R,3S,5R)-2-((((1S,3S,6R)-6-(5-fluoropyrimidin-2-yl)bicyclo[4.1.0]heptan-3-yl)oxy)methyl)-5-methyl-3-(methylsulfonamido)pyrrolidine-1-carboxylate]
